Test results taken from patent US12071453B2, “Neuroactive steroids, compositions, and uses thereof” (Sage Therapeutics, Inc., priority 2013, dated 2024).

How the values were obtained:
[1] = molecular target: T1, GABAA receptors composed of the α1β2γ2 subunits (GABRA1/GABRB2/GABRG2) (Homo sapiens, UniProt P14867+P47870); test: Two Electrode Voltage Clamp (TEVC), GABA receptor potentiation in Xenopus laevis oocytes, α1β2γ2; type: cell-based; conditions: 10 μM compound, 10 μM GABA, read-out: GABA (α1β2γ2) % efficacy at 10 μM
T1 construct: expressed in transfected cells; host or cells: Xenopus laevis oocytes, injected (ratio 1:1:1)
Procedure: (§1) The Two Electrode Voltage Clamp (TEVC) technique was used to investigate the effects of compounds at a concentration of 10 μM on GABAA receptors composed of the α1β2γ2 or α4β3δ subunits expressed in oocytes from the Xenopus laevis. GABA-evoked currents were recorded from oocytes that expressed the GABA receptors and the modulatory effects of the test items on these currents were investigated.
(§2) Ovaries were harvested from Xenopus laevis females that had been deeply anesthetized by cooling at 4° C. and immersion in Tricaine methanesulfonate (MS-222 at a concentration of 150 mg/L) in sodium bicarbonate (300 mg/L). Once anesthetized the animal was decapitated and pithed following the rules of animal rights from the Geneva canton. A small piece of ovary was isolated for immediate preparation while the remaining part was placed at 4° C. in a sterile Barth solution containing in mM NaCl 88, KCl 1, NaHCO3 2.4, HEPES 10, MgSO4·7H2O 0.82, Ca(NO3)2·4H2O 0.33, CaCl2·6H2O 0.41, at pH 7.4, and supplemented with 20 μg/ml of kanamycin, 100 unit/ml penicillin and 100 μg/ml streptomycin. All recordings were performed at 18° C. and cells were super-fused with medium containing in mM: NaCl 82.5, KCl 2.5, HEPES 5, CaCl2·2H2O, ·6H2O 1, pH 7.4.
(§3) Plasmids containing the RNAs of the human GABRA1/GABRB2/GABRG2 and GABRA4/GABRB3/GABRD genes were injected into oocytes using a proprietary automated injection device (Hogg el al., J. Neurosci. Methods, (2008) 169: 65-75). These genes encode for the α1β2γ2 and α4β3δ GABAA subunits respectively. Receptor expression was assessed using electrophysiology at least two days later. The ratio of RNA injection for α1β2γ2 was 1:1:1 and for α4β3δ was 5:1:5. Electrophysiological recordings were made using an automated process equipped with standard TEVC and data were captured and analyzed using a proprietary data acquisition and analysis software running under Matlab (Mathworks Inc.). The membrane potential of the oocytes was maintained at −80 mV throughout the experiments. To explore the effects of proprietary compounds, currents were evoked by applying 10 μM (α1β2γ2) or 3 μM (α4β3δ) GABA for 30 s. These concentrations approximated the EC50 concentration of GABA at each receptor subtype. Oocytes were then re-exposed to GABA again for 30 s. 15 s after beginning the GABA application, test article was co-applied at a concentration of 10 μM for 15 s. Potentiation of the peak current was assessed. Data was filtered at 10 Hz, captured at 100 Hz and analyzed using proprietary data acquisition and analysis software running under Matlab (Mathworks Inc.). For statistical analysis values were computed either with Excel (Microsoft) or Matlab (mathworks Inc.). To obtain mean measurements with standard deviations, all experiments were carried out using at least three cells.

[2] = molecular target: T2, GABAA receptors composed of the α4β3δ subunits (GABRA4/GABRB3/GABRD) (Homo sapiens, UniProt P28472+P48169); test: Two Electrode Voltage Clamp (TEVC), GABA receptor potentiation in Xenopus laevis oocytes, α4β3δ; type: cell-based; conditions: 10 μM compound, 3 μM GABA, read-out: GABA (α4β3δ) % efficacy at 10 μM
T2 construct: expressed in transfected cells; host or cells: Xenopus laevis oocytes, injected (ratio 5:1:5)
Procedure: as §1, §2, §3

[3] = molecular target: [35S]-TBPS binding in rat brain cortical membranes; test: Steroid inhibition of [35S]-TBPS binding, rat brain cortical membranes; conditions: 3 nM [35S]-TBPS, in the presence of 5 μM GABA, read-out: 35S-TBPS Radioligand Displacement (IC50)
Procedure: TBPS binding assays using rat brain cortical membranes in the presence of 5 μM GABA has been described (Gee et al, J. Pharmacol. Exp. Ther. 1987, 241, 346-353; Hawkinson et al, Mol. Pharmacol. 1994, 46, 977-985; Lewin, A. H et al., Mol. Pharmacol. 1989, 35, 189-194).
Briefly, cortices are rapidly removed following decapitation of carbon dioxide-anesthetized Sprague-Dawley rats (200-250 g). The cortices are homogenized in 10 volumes of ice-cold 0.32 M sucrose using a glass/teflon homogenizer and centrifuged at 1500×g for 10 min at 4° C. The resultant supernatants are centrifuged at 10,000×g for 20 min at 4° C. to obtain the P2 pellets. The P2 pellets are resuspended in 200 mM NaCl/50 mM Na—K phosphate pH 7.4 buffer and centrifuged at 10,000×g for 10 min at 4° C. This washing procedure is repeated twice and the pellets are resuspended in 10 volumes of buffer. Aliquots (100 μL) of the membrane suspensions are incubated with 3 nM [^35S]-TBPS and 5 μL aliquots of test drug dissolved in dimethyl sulfoxide (DMSO) (final 0.5%) in the presence of 5 μM GABA. The incubation is brought to a final volume of 1.0 mL with buffer. Nonspecific binding is determined in the presence of 2 μM unlabeled TBPS and ranged from 15 to 25%. Following a 90 min incubation at room temp, the assays are terminated by filtration through glass fiber filters (Schleicher and Schuell No. 32) using a cell harvester (Brandel) and rinsed three times with ice-cold buffer. Filter bound radioactivity is measured by liquid scintillation spectrometry. Non-linear curve fitting of the overall data for each drug averaged for each concentration is done using Prism (GraphPad). […] The concentration of test compound producing 50% inhibition (IC50) of specific binding and the maximal extent of inhibition (Imax) are determined for the individual experiments with the same model used for the overall data and then the mean±SEM.s of the individual experiments are calculated.
Various compounds are or can be screened to determine their potential as modulators of [^35S]-TBPS binding in vitro. These assays are or can be performed in accordance with the above discussed procedures.

T1 sequence (P14867 28-456): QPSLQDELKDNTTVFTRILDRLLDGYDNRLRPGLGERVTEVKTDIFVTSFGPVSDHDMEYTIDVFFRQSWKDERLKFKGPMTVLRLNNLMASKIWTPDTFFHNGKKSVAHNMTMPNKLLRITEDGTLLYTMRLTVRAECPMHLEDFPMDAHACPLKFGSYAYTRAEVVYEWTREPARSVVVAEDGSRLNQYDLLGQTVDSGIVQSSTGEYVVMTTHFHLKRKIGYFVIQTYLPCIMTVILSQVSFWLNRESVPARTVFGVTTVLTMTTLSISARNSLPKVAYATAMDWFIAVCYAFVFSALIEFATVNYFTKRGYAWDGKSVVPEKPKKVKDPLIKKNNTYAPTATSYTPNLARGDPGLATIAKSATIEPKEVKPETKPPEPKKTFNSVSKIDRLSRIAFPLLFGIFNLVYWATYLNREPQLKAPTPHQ
T1 sequence (P47870 26-512): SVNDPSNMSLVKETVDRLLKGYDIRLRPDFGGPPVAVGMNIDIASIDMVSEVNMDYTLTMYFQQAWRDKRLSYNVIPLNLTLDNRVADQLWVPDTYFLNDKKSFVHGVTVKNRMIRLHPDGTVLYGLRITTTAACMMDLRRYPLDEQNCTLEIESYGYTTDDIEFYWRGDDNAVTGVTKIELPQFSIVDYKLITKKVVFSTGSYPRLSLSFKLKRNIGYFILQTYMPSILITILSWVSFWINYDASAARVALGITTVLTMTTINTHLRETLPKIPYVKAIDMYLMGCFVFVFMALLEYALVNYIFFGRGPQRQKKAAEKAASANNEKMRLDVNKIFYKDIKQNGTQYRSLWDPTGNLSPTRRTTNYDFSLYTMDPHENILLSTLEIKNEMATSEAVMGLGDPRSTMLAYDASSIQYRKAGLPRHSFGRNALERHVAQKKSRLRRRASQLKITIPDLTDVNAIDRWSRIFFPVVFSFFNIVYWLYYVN
T1 sequence (P18507 40-475 partner): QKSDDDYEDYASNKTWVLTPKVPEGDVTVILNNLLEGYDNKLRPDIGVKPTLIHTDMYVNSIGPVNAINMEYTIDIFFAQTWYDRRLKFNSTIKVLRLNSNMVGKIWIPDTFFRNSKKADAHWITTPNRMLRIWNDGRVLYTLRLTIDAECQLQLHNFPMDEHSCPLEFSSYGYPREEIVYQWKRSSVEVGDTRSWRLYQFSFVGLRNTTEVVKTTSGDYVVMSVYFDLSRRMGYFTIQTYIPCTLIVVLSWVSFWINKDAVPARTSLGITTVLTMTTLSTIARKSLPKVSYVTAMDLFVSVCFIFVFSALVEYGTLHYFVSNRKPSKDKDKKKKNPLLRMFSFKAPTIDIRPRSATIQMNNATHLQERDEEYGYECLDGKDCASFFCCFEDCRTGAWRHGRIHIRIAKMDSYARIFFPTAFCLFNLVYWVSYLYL
T2 sequence (P48169 36-554): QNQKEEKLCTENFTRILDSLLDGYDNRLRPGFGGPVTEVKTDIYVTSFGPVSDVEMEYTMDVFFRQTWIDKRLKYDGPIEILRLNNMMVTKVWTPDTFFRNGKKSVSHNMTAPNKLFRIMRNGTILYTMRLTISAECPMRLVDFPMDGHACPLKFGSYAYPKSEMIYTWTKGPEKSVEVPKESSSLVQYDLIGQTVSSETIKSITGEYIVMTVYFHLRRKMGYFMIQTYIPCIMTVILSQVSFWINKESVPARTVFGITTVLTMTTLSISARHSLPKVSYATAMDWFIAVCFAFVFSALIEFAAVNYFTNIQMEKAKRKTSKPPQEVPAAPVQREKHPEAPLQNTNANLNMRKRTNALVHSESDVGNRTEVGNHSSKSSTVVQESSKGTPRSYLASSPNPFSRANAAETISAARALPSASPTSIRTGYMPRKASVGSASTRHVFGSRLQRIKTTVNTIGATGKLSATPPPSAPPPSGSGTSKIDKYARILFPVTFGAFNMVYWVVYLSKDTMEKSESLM
T2 sequence (P28472 26-473): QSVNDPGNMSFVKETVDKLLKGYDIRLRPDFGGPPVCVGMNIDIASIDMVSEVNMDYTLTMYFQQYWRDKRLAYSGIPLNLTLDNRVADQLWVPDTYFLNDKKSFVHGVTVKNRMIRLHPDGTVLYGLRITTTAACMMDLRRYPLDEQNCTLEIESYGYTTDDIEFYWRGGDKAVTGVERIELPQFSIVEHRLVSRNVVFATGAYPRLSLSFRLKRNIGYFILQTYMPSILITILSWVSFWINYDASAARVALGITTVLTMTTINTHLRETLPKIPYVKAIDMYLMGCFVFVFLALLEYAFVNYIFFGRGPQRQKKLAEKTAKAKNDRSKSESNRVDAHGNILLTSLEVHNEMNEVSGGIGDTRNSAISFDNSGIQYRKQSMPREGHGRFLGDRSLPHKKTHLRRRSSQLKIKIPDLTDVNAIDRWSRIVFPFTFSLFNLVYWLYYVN
T2 sequence (O14764 25-452 partner): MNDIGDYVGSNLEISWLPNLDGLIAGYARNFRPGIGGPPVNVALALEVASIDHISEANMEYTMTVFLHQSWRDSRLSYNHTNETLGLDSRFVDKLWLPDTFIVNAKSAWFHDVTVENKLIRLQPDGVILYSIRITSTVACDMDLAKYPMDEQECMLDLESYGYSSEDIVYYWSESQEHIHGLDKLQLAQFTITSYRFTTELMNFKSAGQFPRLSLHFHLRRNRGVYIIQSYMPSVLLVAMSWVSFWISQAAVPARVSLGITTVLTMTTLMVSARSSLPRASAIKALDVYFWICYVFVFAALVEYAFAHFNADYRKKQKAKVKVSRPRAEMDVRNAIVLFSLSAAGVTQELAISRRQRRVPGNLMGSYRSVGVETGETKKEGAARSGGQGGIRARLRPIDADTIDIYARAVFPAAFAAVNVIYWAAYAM

COC[C@]12CC[C@@](C)(O)C[C@@H]1CC[C@H]1[C@@H]3CC[C@H](C(=O)Cn4cc(Cl)cn4)[C@@]3(C)CC[C@@H]12 [Compound 18]
Emax at 10 µM [1]: 1000 to 1500%
Emax at 10 µM [2]: 1000 to 1500%

COC[C@]12CC[C@@](C)(O)C[C@@H]1CC[C@H]1[C@@H]3CC[C@H](C(=O)Cn4ccnc4F)[C@@]3(C)CC[C@@H]12 [Compound 21]
Emax at 10 µM [1]: 50 to 500%
IC50 [3]: 100 to 500 nM
Emax at 10 µM [2]: 50 to 500%

CCOC[C@]12CC[C@@](C)(O)C[C@@H]1CC[C@H]1[C@@H]3CC[C@H](C(=O)Cn4nnnc4C)[C@@]3(C)CC[C@@H]12 [Compound 26]
Emax at 10 µM [1]: 500 to 1000%
IC50 [3]: 50 to 100 nM
Emax at 10 µM [2]: 1000 to 1500%

COC[C@]12CC[C@@](C)(O)C[C@H]1CC[C@H]1[C@@H]3CC[C@H](C(=O)Cn4nnc(C)n4)[C@@]3(C)CC[C@@H]12 [Compound 29]
Emax at 10 µM [1]: 50 to 500%
IC50 [3]: 100 to 500 nM
Emax at 10 µM [2]: 500 to 1000%

COC[C@]12CC[C@@](C)(O)C[C@H]1CC[C@H]1[C@@H]3CC[C@H](C(=O)Cn4ccnn4)[C@@]3(C)CC[C@@H]12 [Compound 32]
Emax at 10 µM [1]: 50 to 500%
IC50 [3]: 50 to 100 nM
Emax at 10 µM [2]: 1000 to 1500%

COC[C@]12CC[C@@](C)(O)C[C@H]1CC[C@H]1[C@@H]3CC[C@H](C(=O)Cn4cc(S(C)(=O)=O)cn4)[C@@]3(C)CC[C@@H]12 [Compound 33]
Emax at 10 µM [1]: 50 to 500%
IC50 [3]: 10 to 50 nM
Emax at 10 µM [2]: 50 to 500%

COC[C@]12CC[C@@](C)(O)C[C@@H]1CC[C@H]1[C@@H]3CC[C@H](C(=O)Cn4ncc5ccncc54)[C@@]3(C)CC[C@@H]12 [Compound 45]
Emax at 10 µM [1]: 500 to 1000%
IC50 [3]: 50 to 100 nM
Emax at 10 µM [2]: 1000 to 1500%

COC[C@]12CC[C@@](C)(O)C[C@@H]1CC[C@H]1[C@@H]3CC[C@H](C(=O)Cn4nnc5cccc(F)c54)[C@@]3(C)CC[C@@H]12 [Compound 47]
Emax at 10 µM [1]: 500 to 1000%
IC50 [3]: 10 to 50 nM
Emax at 10 µM [2]: 1000 to 1500%

COC[C@]12CC[C@@](C)(O)C[C@@H]1CC[C@H]1[C@@H]3CC[C@H](C(=O)Cn4nnc5c(F)cccc54)[C@@]3(C)CC[C@@H]12 [Compound 48]
Emax at 10 µM [1]: 500 to 1000%
IC50 [3]: 10 to 50 nM
Emax at 10 µM [2]: 50 to 500%

COC[C@]12CC[C@@](C)(O)C[C@@H]1CC[C@H]1[C@@H]3CC[C@H](C(=O)Cn4nnc5ccc(OC)cc54)[C@@]3(C)CC[C@@H]12 [Compound 51]
Emax at 10 µM [1]: 500 to 1000%
IC50 [3]: 10 to 50 nM
Emax at 10 µM [2]: 1000 to 1500%

COC[C@]12CC[C@@](C)(O)C[C@@H]1CC[C@H]1[C@@H]3CC[C@H](C(=O)Cn4nc5cccc(OC)c5n4)[C@@]3(C)CC[C@@H]12 [Compound 57]
Emax at 10 µM [1]: 50 to 500%
IC50 [3]: 50 to 100 nM
Emax at 10 µM [2]: 500 to 1000%

COC[C@]12CC[C@@](C)(O)C[C@@H]1CC[C@H]1[C@@H]3CC[C@H](C(=O)Cn4nnc5c(OC)cccc54)[C@@]3(C)CC[C@@H]12 [Compound 58]
Emax at 10 µM [1]: 500 to 1000%
IC50 [3]: < 10 nM
Emax at 10 µM [2]: 500 to 1000%

COC[C@]12CC[C@@](C)(O)C[C@@H]1CC[C@H]1[C@@H]3CC[C@H](C(=O)Cn4nnc5cccc(Cl)c54)[C@@]3(C)CC[C@@H]12 [Compound 59]
Emax at 10 µM [1]: 500 to 1000%
IC50 [3]: 10 to 50 nM
Emax at 10 µM [2]: 500 to 1000%

COC[C@]12CC[C@@](C)(O)C[C@H]1CC[C@H]1[C@@H]3CC[C@H](C(=O)Cn4cnc5ccccc54)[C@@]3(C)CC[C@@H]12 [Compound 80]
Emax at 10 µM [1]: 500 to 1000%
IC50 [3]: 10 to 50 nM

COC[C@]12CC[C@@](C)(O)C[C@H]1CC[C@H]1[C@@H]3CC[C@H](C(=O)Cn4nnc5cccc(F)c54)[C@@]3(C)CC[C@@H]12 [Compound 81]
Emax at 10 µM [1]: 500 to 1000%
IC50 [3]: 10 to 50 nM

COC[C@]12CC[C@@](C)(O)C[C@H]1CC[C@H]1[C@@H]3CC[C@H](C(=O)Cn4nnc5c(F)cccc54)[C@@]3(C)CC[C@@H]12 [Compound 82]
Emax at 10 µM [1]: 500 to 1000%
Emax at 10 µM [2]: 500 to 1000%

COC[C@]12CC[C@@](C)(O)C[C@H]1CC[C@H]1[C@@H]3CC[C@H](C(=O)Cn4nc5cccc(F)c5n4)[C@@]3(C)CC[C@@H]12 [Compound 83]
Emax at 10 µM [1]: 1000 to 1500%
IC50 [3]: < 10 nM

COC[C@]12CC[C@@](C)(O)C[C@@H]1CC[C@H]1[C@@H]3CC[C@H](C(=O)Cn4nc5cc(F)c(F)cc5n4)[C@@]3(C)CC[C@@H]12 [Compound 97]
Emax at 10 µM [1]: 500 to 1000%
IC50 [3]: 10 to 50 nM

COC[C@]12CC[C@@](C)(O)C[C@@H]1CC[C@H]1[C@@H]3CC[C@H](C(=O)Cn4nc5cc(Cl)cnc5n4)[C@@]3(C)CC[C@@H]12 [Compound 99]
Emax at 10 µM [1]: 1000 to 1500%
IC50 [3]: 10 to 50 nM

COC[C@]12CC[C@@](C)(O)C[C@@H]1CC[C@H]1[C@@H]3CC[C@H](C(=O)Cn4nnc5cc(Cl)cnc54)[C@@]3(C)CC[C@@H]12 [Compound 100]
Emax at 10 µM [1]: 500 to 1000%
IC50 [3]: 100 to 500 nM

COC[C@]12CC[C@@](C)(O)C[C@@H]1CC[C@H]1[C@@H]3CC[C@H](C(=O)Cn4nnc5ncc(Cl)cc54)[C@@]3(C)CC[C@@H]12 [Compound 101]
Emax at 10 µM [1]: 500 to 1000%
IC50 [3]: 10 to 50 nM

COC[C@]12CC[C@@](C)(O)C[C@@H]1CC[C@H]1[C@@H]3CC[C@H](C(=O)Cn4cc5nccnc5n4)[C@@]3(C)CC[C@@H]12 [Compound 103]
Emax at 10 µM [1]: 1000 to 1500%
IC50 [3]: > 500 nM

COC[C@]12CC[C@@](C)(O)C[C@@H]1CC[C@H]1[C@@H]3CC[C@H](C(=O)Cn4ncc5cc(F)ccc54)[C@@]3(C)CC[C@@H]12 [Compound 107]
Emax at 10 µM [1]: 500 to 1000%
IC50 [3]: > 500 nM

COC[C@]12CC[C@@](C)(O)C[C@@H]1CC[C@H]1[C@@H]3CC[C@H](C(=O)Cn4ncc5ccc(F)cc54)[C@@]3(C)CC[C@@H]12 [Compound 110]
Emax at 10 µM [1]: 500 to 1000%
IC50 [3]: 50 to 100 nM

COC[C@]12CC[C@@](C)(O)C[C@@H]1CC[C@H]1[C@@H]3CC[C@H](C(=O)Cn4cc5ccc(F)cc5n4)[C@@]3(C)CC[C@@H]12 [Compound 111]
Emax at 10 µM [1]: 500 to 1000%
IC50 [3]: 50 to 100 nM

COC[C@]12CC[C@@](C)(O)C[C@@H]1CC[C@H]1[C@@H]3CC[C@H](C(=O)Cn4ncc5ccc(Cl)cc54)[C@@]3(C)CC[C@@H]12 [Compound 112]
Emax at 10 µM [1]: 50 to 500%
IC50 [3]: 50 to 100 nM
